Test results as given in patent publication US11247970B2, “Selective inhibition of gluconeogenic activity” (Dana-Farber Cancer Institute, Inc., priority 2017, dated 2022).
Entries after “also recorded” stand apart in the source; their conditions may differ.

What was measured:
[1] = system: Pck1 and G6pc gene expression; assay: Gluconeogenic gene and protein expression in primary hepatocytes (qPCR, western); assay type: cell-based, mouse
Experimental: For measurement of acetylation, gene expression and glucose production SR-18292 ([…]) was added to cells overnight and fresh compound was added the following day for additional 3 h before collecting the cells (for total of ˜18 h treatment). Where insulin and glucagon stimulation were performed, the medium was changed to starvation medium (DMEM, 0.2% BSA, 2 mM sodium pyruvate, and 1% penicillin/streptomycin) with fresh compound for the last 3 h and cells were stimulated with either 100 nM insulin or 200 nM glucagon for an extra 1.5 h. For glucose measurements following PGC-1α over expression cells were incubated for the last 3 h in glucose-free medium (phenol-red/glucose free DMEM, 0.2% BSA, 2 mM sodium pyruvate and 20 mM sodium lactate or 10 mM glycerol in case glycerol was used as substrate). For glucose measurements following glucagon stimulation cells were incubated for the last 4 h in the same glucose-free medium that also contained glucagon (200 nM). The glucose level in the medium was measured using a glucose assay kit from Eton Bioscience Inc. by adding […] of assay buffer to […] of medium followed by 15 min incubation at 37° C. Absorbance was measured at 490 nm.
siRNA oligos against mouse Ppargc1a were purchased from OriGene (SR420231). Hepatocytes were transfected with a 1:1:1:mixture of 3 unique 27mer siRNA duplexes ([…]) using Lipofectamin RNAiMax (Invitrogen) immediately upon seeding with plating medium. The following morning cells were washed with PBS and medium was changed to maintenance medium. In the afternoon, cells were transfected again and compound treatment started.
Total RNA was extracted from cells or pulverized liver using TRIzol reagent (Ambion, Life Technologies), followed by cDNA preparation from 2 μg of total RNA with a High-Capacity cDNA Reverse Transcription Kit (Applied Biosystems). cDNA products were quantified by real-time PCR using Power SYBR Green PCR Master Mix (Applied Biosystems) on a CFX384 Real-Time PCR System (Bio-Rad). To calculate IC50 from C-80 dose response, curves were fit to the hill equation in a similar manner used to calculate estimated AC50 from the high-throughput qPCR screen. However, unlike the curves from the qPCR high-throughput screen, values of relative repression were used rather than of delta-Ct.

GCN5 = molecular target: T1, GCN5 (Homo sapiens, UniProt Q92830); assay: GCN5 HAT activity assay; assay type: biochemical; conditions: H3 peptide
T1 construct: made in house; host or cells: U-2 OS cells overexpressing Ad-GCN5; FLAG immunoprecipitation, elution with 3×FLAG peptide
Experimental: For determination of GCN5 HAT activity U-2 OS cells overexpressing Ad-GCN5 were treated with SR-18292 ([…]) for 18 h. Cells were lysed with buffer B (20 mM HEPES-KOH (pH 7.9), 125 mM NaCl, 1 mM EDTA, 1 mM DTT, 1% IGEPAL (v/v), 10% glycerol (v/v), 5 mM NaF, 5 mM β-glycerophosphate, 5 mM sodium butyrate and 10 mM nicotinamide), supplemented with Protease Inhibitor Cocktail. FLAG-GCN5 was immunoprecipitated with FLAG beads overnight at 4° C. following multiple washes with lysis buffer. GCN5 was then eluted using 3×FLAG peptide and the purified protein was used to determine HAT activity using the HAT Inhibitor Screening Assay Kit (Cayman Chemicals) per manufacturer instructions. To determine the potential effect of SR-18292 on GCN5 activity in vitro, GCN5 was purified from U-2 OS cells in a similar manner but without treatment with SR-18292.

[2] = system: DIO mice and Lep^ob/ob mice; assay: Glucose tolerance test (GTT); assay type: in vivo
Experimental: All mice were purchased from Jackson laboratories and housed under a 12 h light/12 h dark cycle at 22° C. Before handling, mice were allowed to acclimate for at least 1 week in our animal facility. For in vivo studies with DIO mice, males 6-8 weeks old were fed HFD for the indicated time. For drug administration, SR-18292 was re-suspended in a 10% DMSO/10% Tween80/80% PBS solution at a final concentration of 6-12 mg/ml. Metformin was re-suspended in the same solution at a 20 mg/ml concentration. SR-18292 was injected via I.P. for 3 days between 4-5 pm and food was removed on day 3 at 5 pm. […] Metformin was administered via oral gavage. […] Insulin tolerance test was performed following the same dosing protocol, but mice were fasted for 4 hours after the forth injection before performing the test. Insulin was injected via I.P. (0.5 U/Kg) and blood glucose was measured every 20 minutes. Glycemia was measured by tail bleed using a glucometer (OneTouch). For all experiments, age- and body weight-matched animals were used. For protein, RNA extracts and biochemistry studies, livers were removed following each experiment and snap frozen in liquid nitrogen. For information on number of animals in each experiment please refer to FIGS. 4, 5 and S5 legends. All studies were performed according to protocols approved by Beth Israel Deaconess Medical Center's Animal Care and Use Committee.

T1 sequence (Q92830 whole entry, species assumed): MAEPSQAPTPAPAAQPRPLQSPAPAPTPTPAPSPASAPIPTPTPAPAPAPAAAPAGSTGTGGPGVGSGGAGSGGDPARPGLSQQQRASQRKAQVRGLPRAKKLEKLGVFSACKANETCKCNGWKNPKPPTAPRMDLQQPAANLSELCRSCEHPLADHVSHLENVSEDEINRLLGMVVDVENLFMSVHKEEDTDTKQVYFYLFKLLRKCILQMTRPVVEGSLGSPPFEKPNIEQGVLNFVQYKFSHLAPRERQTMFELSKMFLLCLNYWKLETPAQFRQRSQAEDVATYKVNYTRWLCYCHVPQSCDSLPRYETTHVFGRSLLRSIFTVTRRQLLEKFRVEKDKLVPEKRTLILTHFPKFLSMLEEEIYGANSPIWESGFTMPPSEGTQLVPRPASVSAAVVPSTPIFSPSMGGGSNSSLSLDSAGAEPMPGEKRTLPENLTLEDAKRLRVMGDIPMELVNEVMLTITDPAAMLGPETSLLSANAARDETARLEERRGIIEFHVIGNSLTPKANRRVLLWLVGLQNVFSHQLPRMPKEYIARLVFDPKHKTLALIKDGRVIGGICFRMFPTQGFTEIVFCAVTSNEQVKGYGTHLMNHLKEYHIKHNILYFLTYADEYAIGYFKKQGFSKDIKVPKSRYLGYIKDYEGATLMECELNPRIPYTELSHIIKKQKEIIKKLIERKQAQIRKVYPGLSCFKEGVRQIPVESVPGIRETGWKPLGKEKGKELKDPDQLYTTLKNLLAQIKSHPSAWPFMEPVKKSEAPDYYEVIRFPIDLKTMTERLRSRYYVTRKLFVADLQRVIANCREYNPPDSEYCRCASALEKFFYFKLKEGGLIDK

Structure (SMILES): Cc1ccc(CN(CC(O)COc2cccc3[nH]ccc23)C(C)(C)C)cc1 (stereo not shown) [SR-18292, 1-((1H-indol-4-yl)oxy)-3-(tert-butyl(4-methylbenzyl)amino)propan-2-ol]
- gene expression after short treatment ([1]; 3 hr treatment): no effect
- gluconeogenic gene and protein expression induced by ectopic PGC-1α ([1]; Ad-PGC-1α infected hepatocytes): significantly reduced
- glucagon-stimulated Pck1 and G6pc gene expression ([1]; glucagon 200 nM): significantly reduced
- PEPCK protein levels ([1]; hepatocytes infected with Ad-PGC-1α): reduced
- suppression of Pck1 and G6pc after siRNA knock down of PGC-1α ([1]; siRNA against Ppargc1a): significantly impairs the ability of SR-18292 to suppress Pck1 and G6pc
- catalytic (HAT) activity of GCN5 immunoprecipitated from treated cells (GCN5; U-2 OS cells treated 18 h): not changed; also recorded: not increased
- GCN5 HAT activity on in vitro treatment of IPed GCN5 (GCN5; in vitro treatment): did not result in increased activity; also recorded: not affected
- glucose tolerance ([2]; DIO mice): significantly enhanced glucose tolerance
- glucose tolerance ([2]; Lep^ob/ob mice): significantly enhanced glucose tolerance
- insulin levels after GTT ([2]; mouse, in vivo): lower
